Measured values from patent publication EP4782453A1 (Beyang Therapeutics Co., Ltd., priority 2023, dated 2025).
Like-named read-outs stand apart in the source and are kept apart here.

Biological target: T1, Menin-MLL (Homo sapiens, UniProt O00255)
T1 construct: His-Menin (M1-L615 end); purchased BIORTUS BP9210
T1 sequence (O00255 1-615 isoform O00255-1): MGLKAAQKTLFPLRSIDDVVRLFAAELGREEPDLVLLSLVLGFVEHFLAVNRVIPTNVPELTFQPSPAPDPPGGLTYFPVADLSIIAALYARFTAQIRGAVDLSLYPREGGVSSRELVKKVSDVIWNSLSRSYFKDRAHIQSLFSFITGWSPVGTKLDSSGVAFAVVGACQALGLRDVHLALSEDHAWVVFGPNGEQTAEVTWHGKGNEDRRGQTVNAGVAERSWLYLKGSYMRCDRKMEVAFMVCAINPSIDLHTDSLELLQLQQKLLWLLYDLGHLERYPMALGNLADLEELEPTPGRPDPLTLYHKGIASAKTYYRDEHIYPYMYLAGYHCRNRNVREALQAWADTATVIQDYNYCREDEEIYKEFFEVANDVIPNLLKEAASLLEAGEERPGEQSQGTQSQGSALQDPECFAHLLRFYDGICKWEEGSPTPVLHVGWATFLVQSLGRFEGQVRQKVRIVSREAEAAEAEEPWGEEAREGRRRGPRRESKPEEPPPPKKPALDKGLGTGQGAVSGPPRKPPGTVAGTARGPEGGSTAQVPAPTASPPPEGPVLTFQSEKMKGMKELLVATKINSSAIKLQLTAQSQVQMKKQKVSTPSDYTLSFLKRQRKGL
Experiment: Inhibitory activity against Menin-MLL binding (fluorescence polarization)
Settings: 150 nM His-Menin, 15 nM FITC-MLL, 25°C for 60 min
Procedure: • His-Menin (M1-L615 end), purchased from BIORTUS, Catalog Number: BP9210; and • FITC-MLL4-43, purchased from GenScript, Catalog Number: C491HFF190-3/PE1324.
In a 10 µL reaction solution (20 mM HEPES, pH 7.5, 50 mM NaCl, 1 mM DTT, 0.01% BSA) containing any compound from the examples, 150 nM His-Menin was added to a 384-well plate (Corning, Model: 4514). Each concentration was set up in duplicate wells. After centrifugation at 1000 RPM for 1 min, the plate was incubated at 25°C for 15 min. Then, 15 nM […] (20 mM HEPES, pH 7.5, 50 mM NaCl, 1 mM DTT, 0.01% BSA) was added to a 384-well plate. After centrifugation at 1000 RPM for 1 min, the reaction proceeded at 25°C for 60 min. Changes in fluorescence polarization were measured using a plate reader (PerkinElmer, Envision 2104). Based on the measured signals, the binding inhibition rate of the compound at each concentration was calculated, and the IC50 (half-maximal inhibitory concentration) of the compound was determined using statistical analysis software GraphPad Prism (GraphPad Software, Inc.) by means of a nonlinear fitting formula: 4-Parameter Logistic Model or Sigmoidal Dose-Response Model: Y = Bottom + (Top−Bottom)/(1 + 10^((LogIC50−X) × Hill Slope)), [formula] in which X indicates the logarithm of compound concentration, Y indicates a fluorescence polarization mP value, and Top and Bottom indicate the maximum and minimum readouts of fluorescence polarization mP values. Table 1: Inhibitory Activity of Compounds Against Menin-MLL Binding

[1] = fluorescence polarization, read-out: Menin-MLL IC50
[2] = Menin-MLL IC50, fluorescence polarization

With `COCCN(C)CCCC(C(C)C)N1CC(c2cc(-c3ccc(F)cc3C(=O)N(CC(F)F)C(C)C)c3cnccn23)C1` (stereo not shown) [Example 147, N-(2,2-difluoroethyl)-5-fluoro-2-[6-(1-{6-[(2-methoxyethyl)(methyl)amino]-2-methylhexan-3-yl}azacyclobutan-3-yl)pyrrolo[1,2-a]pyrazin-8-yl]-N-(isopropyl)benzamide] the IC50 [1] was 140 nM.

For `Cc1nc(F)c2c(-c3ccc(F)cc3C(=O)N3CCOC[C@H]3C)cc(C3CN(C(CC[C@H]4COCCN4C)C(C)C)C3)cn12` (stereo partly drawn) [Example 374, (3R)-4-{5-fluoro-2-[1-fluoro-3-methyl-6-(1-{4-methyl-1-[(3S)-4-methylmorpholin-3-yl]pentan-3-yl}azacyclobutan-3-yl)imidazo[1,5-a]pyridin-8-yl]benzoyl}-3-methylmorpholine], the IC50 [1] was 26 nM.

`CCN(C(=O)c1cc(F)ccc1-c1cc(N2CCN(C(=O)[C@@H]3C[C@H](OC)CN3)CC2)cn2c(C)nc(Cl)c12)C(C)C` [Example 109] showed an IC50 [1] of 96 nM.

`Cc1nc(F)c2c(-c3ccc(F)cc3C(=O)N3CCOC[C@H]3C)cc(C3CN(C(CO)C4CCOCC4)C3)cn12` (stereo partly drawn) [Example 309, 2-[3-(1-fluoro-8-{4-fluoro-2-[(3R)-3-methylmorpholin-4-carbonyl]phenyl}-3-methylimidazo[1,5-a]pyridin-6-yl)azacyclobutan-1-yl]-2-(oxacyclohexan-4-yl)ethan-1-ol] showed an IC50 [1] of 60 nM.

For `CCN(C(=O)c1cc(F)ccc1-c1cc(N2CCN(C(=O)C3NC4CCC3CC4)CC2)cn2c(C)nc(Cl)c12)C(C)C` [Example 93, 2-(1-chloro-3-methyl-6-{4-[(1R,3S,4S)-2-azabicyclo[2.2.2]octan-3-carbonyl]piperazin-1-yl}imidazo[1,5-a]pyridin-8-yl)-N-ethyl-5-fluoro-N-(isopropyl)benzamide], the IC50 [2] was 21 nM.

In the case of `COCCN(C(=O)c1cc(F)ccc1-c1cc(C2CN([C@@H](CCCN3C[C@H]4C[C@@H]3CO4)C(C)C)C2)cn2c(C)ncc12)C(C)C` [Example 467-2, 5-fluoro-N-(2-methoxyethyl)-2-(3-methyl-6-{1-[(3S)-2-methyl-6-[(1R,4R)-2-oxa-5-azadicyclo[2.2.1]heptan-5-yl]hexan-3-yl]azacyclobutan-3-yl}imidazo[1,5-a]pyridin-8-yl)-N-(isopropyl)benzamide], the IC50 [2] is reported as 54 nM.

`C=C1C[C@@H]2CC[C@H]1[C@@H](C(=O)N1CCC(c3cc(-c4ccc(F)cc4C(=O)N(CC)C(C)C)c4cncn4c3)CC1)N2` [Compound 39, N-ethyl-5-fluoro-2-(6-{1-[(1S,3S,4R)-5-methylene-2-azabicyclo[2.2.2]octan-3-carbonyl]piperidin-4-yl}imidazo[1,5-a]pyridin-8-yl)-N-(isopropyl)benzamide] was tested, and the IC50 [1] was 137 nM.

`C=C1CN[C@H](C(=O)N2CCN(c3cc(-c4ccc(F)cc4C(=O)N(CC)C(C)C)c4c(Cl)nc(C)n4c3)CC2)C1` [Example 117] gave an IC50 [1] of 21 nM.

Work on `CCN(C(=O)c1cc(F)ccc1-c1cc(C2CN([C@@H](CCCN3CCC(OCCO)CC3)C(C)C)C2)cc2c1cnn2C)C(C)C` [Example 401-1] yielded an IC50 [1] of 130 nM.

Compound `CCS(=O)(=O)N[C@H]1CC[C@H](CN2CC(c3cc(-c4ccc(F)cc4C(=O)N4CCC[C@H]4C)c4cnn(C)c4c3)C2)CC1` [Example 167] has an IC50 [1] of 57 nM.

Compound `CCN(C(=O)c1cc(F)ccc1-c1cc(C2CN([C@H](CCCN3CC4COCC(C3)N4C(=O)OC(C)(C)C)C(C)C)C2)cn2c(C)ncc12)C(C)C` [Example 478] has an IC50 [1] of 1.1 nM.

`CCN(C(=O)c1cc(F)ccc1-c1cc(C2CN([C@@H](CCCN3CCN(C)CC3)C(C)C)C2)cn2c(C)nnc12)C(C)C` [Example 360-2, N-ethyl-5-fluoro-2-(3-methyl-6-{1-[(3S)-2-methyl-6-(4-methylpiperazin-1-yl)hexan-3-yl]azacyclobutan-3-yl}-[1,2,4]triazolo[4,3-a]pyridin-8-yl)-N-(isopropyl)benzamide] was tested, and the IC50 [1] was 2690 nM.

Work on `CCS(=O)(=O)N[C@H]1CC[C@H](C(C)N2CC(c3cc(-c4ccc(F)cc4C(=O)N4CCOC[C@H]4C)c4cnn(C)c4c3)C2)CC1` (stereo partly drawn) [Example 178, N-[(1r,4r)-4-{1-[3-(4-{4-fluoro-2-[(3R)-3-methylmorpholin-4-carbonyl]phenyl}-1-methyl-1H-indazol-6-yl)azacyclobutan-1-yl]ethyl}cyclohexyl]ethan-1-sulfonamide] yielded an IC50 [2] of 115 nM.

`CCN(C(=O)c1cc(F)ccc1-c1cc(N2CCC(NC[C@H]3CC[C@H](N4CCOC4=O)CC3)CC2)cc2c1cnn2C)C(C)C` [Example 36, N-ethyl-5-fluoro-2-{1-methyl-6-[4-({[(1r,4r)-4-(2-oxo-1,3-oxazolidin-3-yl)cyclohexyl]methyl}amino)piperidin-1-yl]-1H-indazol-4-yl}-N-(isopropyl)benzamide] showed an IC50 [2] of 156 nM.

With `CCN(C(=O)c1cc(F)ccc1-c1cc(C2CN(C(=O)[C@H]3NC[C@@H]4CCC[C@@H]43)C2)cn2c(C)nc(F)c12)C(C)C` [Example 274] the IC50 [2] was 19.5 nM.

In the case of `Cc1nc(F)c2c(-c3ccc(F)cc3C(=O)N3CCOC[C@H]3C)cc(C3CN(CC4CCN(C(=O)C5(C#N)CC5)CC4)C3)cn12` [Example 254], the IC50 [1] is reported as 48 nM.

With `CCN(C(=O)c1cc(F)ccc1-c1cc(N2CCN(C(=O)[C@@H]3CC4CCCCC4N3)CC2)cn2c(C)nc(Cl)c12)C(C)C` (stereo partly shown) [Example 112] the IC50 [1] was 24 nM.

Work on `CCN(C(=O)c1cc(F)ccc1-c1cc(C2CN(C(CCN3CCN(CCO)CC3)C(C)C)C2)cn2c(C)ncc12)C(C)C` (stereo not shown) [Example 456, N-ethyl-5-fluoro-2-[6-(1-{1-[4-(2-hydroxyethyl)piperazin-1-yl]-4-methylpentan-3-yl}azacyclobutan-3-yl)-3-methylimidazo[1,5-a]pyridin-8-yl]-N-(isopropyl)benzamide] yielded an IC50 [1] of 14 nM.

Work on `CCN1CCN(C[C@H](C(C)C)N2CC(c3cc(-c4ccc(F)cc4C(=O)N(CC)C(C)C)c4cnn(C)c4c3)C2)CC1` [Example 418] yielded an IC50 [1] of 6.3 nM.

With `COCC(=O)N1CCC(CN2CC(c3cc(-c4ccc(F)cc4C(=O)N4CCOC[C@H]4C)c4c(F)nc(C)n4c3)C2)CC1` [Example 241, 1-(4-{[3-(1-fluoro-8-{4-fluoro-2-[(3R)-3-methylmorpholin-4-carbonyl]phenyl}-3-methylimidazo[1,5-a]pyridin-6-yl)azacyclobutan-1-yl]methyl}piperidin-1-yl)-2-methoxyethan-1-one] the IC50 [1] was 31.5 nM.

With `Cc1nc(F)c2c(-c3ccc(F)cc3C(=O)N3[C@H](C)COC[C@H]3C)cc(C3CN(CC4CCN(C(=O)c5cnoc5)CC4)C3)cn12` [Example 233] the IC50 [1] was 42 nM.

For `CCN(C(=O)c1cc(F)ccc1-c1cc(N2CCC(NCC3(F)CCC(NS(=O)(=O)CC)CC3)CC2)cn2c(C)ncc12)C(C)C` (stereo not shown) [Compound 57, 2-[6-(4-{[(4-ethanesulfonamido-1-fluorocyclohexyl)methyl]amino}piperidin-1-yl)-3-methylimidazo[1,5-a]pyridin-8-yl]-N-ethyl-5-fluoro-N-(isopropyl)benzamide], the IC50 [1] was 107 nM.

In the case of `Cc1nc(F)c2c(-c3ccc(F)cc3C(=O)N3CCOC[C@H]3C)cc(C3CN(C(C)C4CCOCC4)C3)cn12` (stereo partly drawn) [Example 238, (3R)-4-[5-fluoro-2-(1-fluoro-3-methyl-6-{1-[1-(oxacyclohexan-4-yl)ethyl]azacyclobutan-3-yl}imidazo[1,5-a]pyridin-8-yl)benzoyl]-3-methylmorpholine], the IC50 [1] is reported as 10 nM.

With `CCNC(=O)N1CCC([C@@H](C)N2CC(c3cc(-c4ccc(F)cc4C(=O)N(CC)C(C)C)c4c(F)nc(C)n4c3)C2)CC1` [Example 282-1, N-ethyl-4-[(1R)-1-[3-(8-{2-[ethyl(isopropyl)aminoformyl]-4-fluorophenyl}-1-fluoro-3-methylimidazo[1,5-a]pyridin-6-yl)azacyclobutan-1-yl]ethyl]piperidin-1-formamide] the IC50 [1] was 9 nM.

Compound `COCCN(C)CCC[C@@H](C(C)C)N1CC(c2cc(-c3ccc(F)cc3C(=O)N3CCOC[C@H]3C)c3c(F)nc(C)n3c2)C1` [Example 200-2] has an IC50 [1] of 75 nM.
